# Tests used:
# Format in all cases: in vivo
# [1] = test system: green peach aphid (Myzus persicae); assay: Myzus test; oral (MYZUPE O); conditions: 100 ppm, oral (sucking at the preparation)
# Description: Myzus Test; Oral; (MYZUPE O)
# Solvent: 80 parts by weight of acetone
# To produce a suitable preparation of active compound, 1 part by weight of active compound is mixed with the stated amounts of solvent and emulsifier, and the concentrate is diluted with water to the desired concentration.
# Containers are populated with all stages of the green peach aphid (Myzus persicae), the treatment is by sucking at the preparation of active compound of the desired concentration.
# (§1) After the desired period of time, the effect in % is determined. 100% means that all aphids have been killed; 0% means that none of the aphids have been killed.
# (§2) In this test, for example, the following compounds of the Preparation Examples show good activity: see table
# [2] = test system: green peach aphid (Myzus persicae); assay: Myzus test (MYZUPE spray treatment); conditions: spray on infested Chinese cabbage discs; for Kill rate in % after 5 days: 500 g/ha; for pest or weed control at 500 g/ha: Myzus persicae, in Brassica rapa, 120 h, after 5 days, read-out: Kill rate in % after 5 days
# Description: Myzus Test (MYZUPE Spray Treatment)
# (§3) Solvents: 78 parts by weight of acetone • • 1.5 parts by weight of dimethylformamide
# (§4) Emulsifier: 0.5 part by weight of alkylaryl polyglycol ether
# (§5) To produce a suitable preparation of active compound, 1 part by weight of active compound is mixed with the stated amounts of solvents and emulsifier, and the concentrate is diluted with emulsifier-containing water to the desired concentration.
# Discs of Chinese cabbage (Brassica pekinensis) which are infested by all stages of the green peach aphid (Myzus persicae) are sprayed with a preparation of active compound of the desired concentration.
# as §1
# On this test, for example, the following compounds of the Preparation Examples show good activity: see table
# [3] = test system: greenhouse red spider mite (Tetranychus urticae); assay: Tetranychus test, OP-resistant (TETRUR spray treatment); conditions: 500 g/ha, sprayed bean leaf discs
# Description: Tetranychus Test, OP-Resistant (TETRUR Spray Treatment)
# as §3, §4, §5
# Discs of bean leaves (Phaseolus vulgaris) which are infested by all stages of the greenhouse red spider mite (Tetranychus urticae) are sprayed with a preparation of active compound of the desired concentration.
# After the desired period of time, the effect in % is determined. 100% means that all spider mites have been killed; 0% means that none of the spider mites have been killed.
# (§6) In this test, for example, the following compounds of the Preparation Examples show good activity: see table.
# [4] = test system: larvae of the mustard beetle (Phaedon cochleariae); assay: Phaedon cochleariae test (PHAECO spray treatment); conditions: 500 g/ha, sprayed Chinese cabbage discs
# Description: Phaedon cochleariae Test (PHAECO Spray Treatment)
# as §3, §4, §5
# After the desired period of time, the effect in % is determined. 100% means that all beetle larvae have been killed; 0% means that none of the beetle larvae have been killed.
# as §2
# [5] = test system: caterpillars of the armyworm (Spodoptera frugiperda); assay: Spodoptera frugiperda test (SPODFR spray treatment); conditions: 500 g/ha, sprayed maize leaf discs
# Description: Spodoptera frugiperda Test (SPODFR Spray Treatment)
# as §3, §4, §5
# Discs of maize leaves (Zea mays) are sprayed with a preparation of active compound of the desired concentration and, after drying, populated with caterpillars of the armyworm (Spodoptera frugiperda).
# After the desired period of time, the effect in % is determined. 100% means that all caterpillars have been killed; 0% means that none of the caterpillars have been killed.
# as §2
# [6] = test system: cotton aphid (Aphis gossypii); assay: Aphis gossypii test (APHIGO), leaf dipping; conditions: cotton leaves dipped
# Description: (§7) Aphis gossypii Test (APHIGO)
# Solvent: 7 parts by weight of dimethylformrnamide
# (§8) Emulsifier: 2 parts by weight of alkylaryl polyglycol ether
# (§9) To produce a suitable preparation of active compound, 1 part by weight of active compound is mixed with the stated amounts of solvent and emulsifier, and the concentrate is diluted with emulsifier-containing water to the desired concentration.
# Cotton leaves (Gossypium hirsutum) which are heavily infested by the cotton aphid (Aphis gossypii) are treated by being dipped into the preparation of active compound of the desired concentration.
# (§10) After the desired period of time, the kill in % is determined. 100% means that all aphids have been killed; 0% means that none of the aphids have been killed.
# as §6
# Lucilia cuprina larvae = assay: Lucilia cuprina test (LUCICU); conditions: 100 ppm, treated horse meat
# Description: Lucilia cuprina Test (LUCICU)
# Solvent: dimethyl sulphoxide
# To produce a suitable preparation of active compound, 1 part by weight of active compound is mixed with the stated amount of water and the concentrate is diluted with water to the desired concentration.
# Containers containing horse meat treated with the preparation of active compound of the desired concentration are populated with Lucilia cuprina larvae.
# After the desired period of time, the kill in % is determined. 100% means that all larvae have been killed; 0% means that none of the larvae have been killed.
# as §6
# [7] = test system: green peach aphid (Myzus persicae); assay: Myzus persicae test, hydroponic treatment (MYZUPE sys.); conditions: 20 ppm, hydroponic treatment of pea plant
# Description: Myzus persicae Test, Hydroponic Treatment (MYZUPE sys.)
# (§11) Solvent: 7 parts by weight of dimethylformamide
# as §8, §9
# The preparation of active compound is mixed with water. The stated concentration refers to the amount of active compound per volume unit of […] (mg/l=ppm). The treated water is filled into containers housing a pea plant (Pisum sativum) which is then infected with the green peach aphid (Myzus persicae).
# as §10, §6
# [8] = test system: cotton aphid (Aphis gossypii); assay: Aphis gossypii test (APHIGO), spraying; conditions: 12 g/ha, cotton leaves sprayed
# Description: as §7, §11
# Emulsifier: 1 part by weight of alkylaryl polyglycol ether
# as §9
# Cotton leaves (Gossypium hirsutum) which are heavily infested by the cotton aphid (Aphis gossypii) are treated by spraying with the preparation of active compound at the stated concentration.
# After the desired period of time, the kill in % is determined. 100% means that all animals have been killed; 0% means that none of the animals have been killed.
# as §2
structure (smiles),measurement,setting,value
"CC1CC2OC(=O)C=C2N(Cc2ccc(Cl)nc2)C1 (single isomer, unassigned) [Example I-12b, 4-[(6-Chloropyridin-3-yl)methyl]-6-methyl-5,6,7,7a-tetrahydrofuro[3,2-b]-pyridin-2(4H)-on]",Kill rate in % after 5 days,[1],100%
same,Kill rate in % after 5 days,[2],100%
same,Kill rate in % after 6 days,[3],90%
"O=C1C=C2C(CC(Cl)CN2Cc2ccc(Cl)nc2)O1 (single isomer, unassigned) [Example I-17a, 4-[(6-Chloropyridin-3-yl)methyl]-6-chloro-5,6,7,7a-tetrahydrofuro[3,2-b]-pyridin-2(4H)-one]",Kill rate in % after 7 days,[4],100%
same,pest or weed control at 500 g/ha,[2],100%
"O=C1C=C2C(OCCN2Cc2ccc(Cl)nc2)O1 (stereo not shown) [Example I-1, 1-[(6-Chloropyridin-3-yl)methyl]-2,3-dihydro-1H-furo[2,3-b][1,4]oxazin-6(4aH)-one]",Kill rate in % after 5 days,[1],100%
same,pest or weed control at 500 g/ha,[2],100%
"CC1CC2OC(=O)C=C2N(Cc2ccc(Cl)nc2)C1 (single isomer, unassigned) [Example I-12a, 4-[(6-Chloropyridin-3-yl)methyl]-6-methyl-5,6,7,7a-tetrahydrofuro[3,2-b]-pyridin-2(4H)-on]",Kill rate in % after 5 days,[1],100%
same,pest or weed control at 500 g/ha,[2],100%
"CC12CCCN(Cc3ccc(Cl)nc3)C1=CC(=O)O2 (stereo not shown) [Example I-10, 4-[(6-Chloropyridin-3-yl]methyl]-7a-methyl-5,6,7,7a-tetrahydrofuro[3,2-b]-pyridin-2(4H)-one]",pest or weed control at 500 g/ha,[2],100%
O=C1C=C2[C@@H](CCCN2Cc2ccc(Cl)nc2)O1 [Example I-3],Kill rate in % after 7 days,[4],100%
same,Kill rate in % after 7 days,[5],100%
same,pest or weed control at 500 g/ha,[2],100%
O=C1C=C2C(CC(F)(F)CN2Cc2ccc(Cl)nc2)O1 (stereo not shown) [Example I-15],pest or weed control at 500 g/ha,[2],100%
"O=CC1=C2C(CCCN2Cc2ccc(Cl)nc2)OC1=O (stereo not shown) [Example I-11, 3-Formyl-4-[(6-chloropyridin-3-yl)methyl]-5,6,7,7a-tetrahydrofuro [3,2-b]-pyridin-2(4H)-one]",pest or weed control at 500 g/ha,[2],100%
O=C1OC2COCN(Cc3ccc(Cl)nc3)C2=C1Cl (stereo not shown) [Example I-8],pest or weed control at 500 g/ha,[2],100%
"O=C1C=C2C(CCCN2Cc2ccc(Cl)nc2)O1 (stereo not shown) [Example I-2, 4-[(6-Chloropyridin-3-yl)methyl]-5,6,7,7a-tetrahydrofuro[3,2-b]pyridin-2(4H)-one]",Kill rate in % after 7 days,[5],100%
same,Kill rate in % after 6 days,[6]; 20 ppm,95%
same,pest or weed control at 500 g/ha,[2],100%
same,Kill rate in % after 2 days,Lucilia cuprina larvae,100%
same,Kill rate in % after 6 days,[7],100%
same,Kill rate in % after 7 days,[8],85%
"O=C1C=C2C(CC(Cl)CN2Cc2ccc(Cl)nc2)O1 (single isomer, unassigned) [Example I-17b, 4-[(6-Chloropyridin-3-yl)methyl]-6-chloro-5,6,7,7a-tetrahydrofuro[3,2-b]-pyridin-2(4H)-one]",Kill rate in % after 5 days,[2],90%
"O=C1C=C2C(CCCCN2Cc2ccc(Cl)nc2)O1 (stereo not shown) [Example I-7, 4-[(6-Chloropyridin-3-yl)methyl]-4,5,6,7,8,8a-hexahydro-2H-furo[3,2-b]-azepin-2-one]",Kill rate in % after 6 days,[6]; 100 ppm,95%
same,pest or weed control at 500 g/ha,[2],100%
same,Kill rate in % after 6 days,[7],100%
O=C1C=C2[C@H](CCCN2Cc2ccc(Cl)nc2)O1 [Example I-4],Kill rate in % after 7 days,[4],100%
same,pest or weed control at 500 g/ha,[2],100%
O=C1C=C2C(O1)C(O)CCN2Cc1ccc(Cl)nc1 (stereo not shown) [Example I-19],pest or weed control at 500 g/ha,[2],100%
"O=C1C=C2C(=CCCN2Cc2ccc(Cl)nc2)O1 [Example I-20, 4-[(6-Chloropyridin-3-yl)methyl]-5,6-dihydrofuro[3,2-b]pyridin-2(4H)-one]",Kill rate in % after 7 days,[4],100%
same,pest or weed control at 500 g/ha,[2],100%
O=C1CC2OC(=O)C=C2N(Cc2ccc(Cl)nc2)C1 (stereo not shown) [Example I-14],Kill rate in % after 5 days,[1],100%
same,pest or weed control at 500 g/ha,[2],100%
O=C1OC2CCCN(Cc3ccc(Cl)nc3)C2=C1Cl (stereo not shown) [Example I-9],Kill rate in % after 6 days,[6]; 100 ppm,90%
same,pest or weed control at 500 g/ha,[2],100%
same,Kill rate in % after 2 days,Lucilia cuprina larvae,80%
same,Kill rate in % after 6 days,[7],100%
"O=C1C=C2C(CC=CN2Cc2ccc(Cl)nc2)O1 (stereo not shown) [Example I-18, 4-[(6-Chloropyridin-3-yl)methyl]-7,7a-dihydrofuro[3,2-b]pyridin-2(4H)-one]",pest or weed control at 500 g/ha,[2],100%
"O=C1C=C2C(CC=CCN2Cc2ccc(Cl)nc2)O1 (stereo not shown) [Example I-6, 4-[(6-Chloropyridin-3-yl)methyl]-4,5,8,8a-tetrahydro-2H-furo[3,2-b]azepin-2-one]",pest or weed control at 500 g/ha,[2],100%
same,Kill rate in % after 2 days,Lucilia cuprina larvae,100%

# Source: US7951951B2, “Bicyclic enamino(thio)carbonyl compounds” (Bayer Cropscience AG, priority 2006, dated 2011)
